From patent US8431525B2, “Coelenteramide analogs” (JNC Corporation, priority 2009, dated 2013)

Assays:
[1] = Fluorescence spectrum and fluorescence quantum yield of CTMD analogs at 750 nM (Example 1); type: physicochemical; details: for fluorescence spectrum detected: 750 nM, both in methanol and in a phosphate buffer; for fluorescence properties compared with known CTMD (c-4) or h-CTMD (c-13): from TABLE 1
Protocol: (§1) The fluorescence quantum yield of each CTMD analog synthesized was determined by the following procedure. The fluorescence spectrum was measured at 25° C. using a spectrofluorometer FP-6500 of JASCO (JASCO Corp., Tokyo). Specifically, the CTMD analog was dissolved in methanol (MeOH) or in 67 mM phosphate buffer (PB) (pH 7.4) at a final concentration of 750 nM using a quartz cell (light path length of 10 mm). Measurement was performed 3 times at the excited wavelength of 330 nm, emission/excitation band width of 3 nm, response of 0.5 second and scanning rate of 100 nm/min. The average was taken as the fluorescence spectrum of the compound. The fluorescence quantum yield was determined after the spectrum was corrected.
Quinine sulfate was used as a standard for determining the fluorescence quantum yield. After quinine sulfate (Wako Pure Chemical Industries) was dissolved in 0.1N sulfuric acid aqueous solution, measurement was performed at the excitation light of 366 nm under the conditions for fluorescence measurements described above. The relative fluorescence quantum yield (fluorescence intensity) of the compound was calculated relative to the quantum yield of quinine sulfate as being 0.55.

[2] = Fluorescence spectra at a final concentration of 30 μM (Example 2); type: physicochemical; details: excited at 330 nm; for Fluorescence Intensity (MeOH) / λmax (MeOH)/nm: methanol, 30 μM; for Fluorescence Intensity (PB) / λmax (PB)/nm: phosphate buffer pH 7.4, 30 μM
Protocol: as §1
(§2) The fluorescence quantum yield determined in EXAMPLE 1 was estimated by measuring the fluorescence spectra when the final concentration of coelenteramide analogs was 750 nM. When the final concentration was 750 nM as in EXAMPLE 1, any fluorescence spectrum was not detected for c-14, c-31 and c-36 both in methanol and in a phosphate buffer, and not detected for c-25 in a phosphate buffer, in coelenteramide analogs of the present invention (n.d.: not detected). With respect to c-14, c-31, c-25 and c-36 that no fluorescence spectrum was detected, fluorescence spectra were measured under the same conditions as in EXAMPLE 1 except that the final concentration of these coelenteramide analogs was 30 μM. In a similar method, the fluorescence spectrum for C-4 was also measured at a final concentration of 30 μM. The fluorescence spectrum also for […] was measured in 50 mM Tris-HCl (pH 7.6) containing 10 mM CaCl2 under the same conditions as in EXAMPLE 1 except that the final concentration was 18 μM.

[3] = Fluorescence spectrum in 50 mM Tris-HCl (pH 7.6) containing 10 mM CaCl2 at 18 μM; type: physicochemical; details: 10 mM CaCl2, 18 μM
Protocol: as §2
The fluorescence spectrum of c-38 was measured at 25° C. using a JASCO spectrofluorometer FP-6500 (JASCO Corp., Tokyo). Specifically, c-38 was dissolved in 50 mM Tris-HCl (pH 7.6) containing 10 mM CaCl2 at a final concentration of 18 μM using a quartz cell (light path length of 10 mm). […] The average was taken as the fluorescence spectrum.

[4] = 0.1N H2SO4, ex. 366 nm; value taken as reference; cited from earlier work

Structure (SMILES)	melting point	fluorescence spectrum detected [1]	fluorescence properties compared with known CTMD (c-4) or h-CTMD (c-13) [1]	Fluorescence Intensity (MeOH) [2]	λmax (MeOH)/nm [2]	Fluorescence Intensity (PB) [2]	λmax (PB)/nm [2]	fluorescence capacity ([3]; excited at 330 nm, FIG. 4)	fluorescence ability in an aqueous solution [3]	Fluorescence quantum yield of the standard [4]	λmax of the standard ([1]; 0.1N H2SO4, ex. 366 nm)
CC(=O)Oc1ccc(-c2cnc(NC(=S)Cc3ccccc3)c(Cc3ccccc3)n2)cc1 [c-31, 5-(4-Acetoxyphenyl)-3-benzyl-2-(phenylthioacetylamino)pyrazine]	143 to 145 °C	not detected	different fluorescence properties	5.2	422.0 nm	1.7	413.5 nm				
O=[N+]([O-])c1ccc(S(=O)(=O)Nc2ncc(-c3ccc(O)cc3)nc2Cc2ccccc2)cc1 [c-36, 3-Benzyl-5-(4-hydroxyphenyl)-2-[(4-nitrophenyl)sulfonylamino]pyrazine]	176 to 177.5 °C (dec.)	not detected	different fluorescence properties	3.6	433.0 nm	0.8	433.5 nm				
O=S(=O)(Cc1ccc(O)cc1)Nc1ncc(-c2ccc(O)cc2)nc1Cc1ccccc1 [c-38, 3-Benzyl-2-(4-hydroxybenzyl)sulfonylamino-5-(4-hydroxyphenyl)pyrazine]	194.5 to 196.5 °C							has the fluorescence capacity			
Oc1ccc(CC(=S)Nc2ncc(-c3ccc(O)cc3)nc2Cc2ccccc2)cc1 [c-45, 3-Benzyl-5-(4-hydroxyphenyl)-2-[(4-hydroxyphenyl)thioacetylamino]pyrazine]	101 to 103 °C								had the fluorescence ability		
C=C[C@H]1CN2CC[C@H]1C[C@H]2[C@H](O)c1ccnc2ccc(OC)cc12.C=C[C@H]1CN2CC[C@H]1C[C@H]2[C@H](O)c1ccnc2ccc(OC)cc12.O=S(=O)(O)O [quinine, quinine sulfate, reference compound]										0.55	451 nm
